Reference: patent US5145783A, “Glyphosate-tolerant 5-endolpyruvyl-3-phosphoshikimate synthase” (Monsanto Company, priority 1990, dated 1992)

Assays:
[1] = molecular target: petunia EPSP synthase with alanine for the first glycine of the conserved region (Petunia hybrida, UniProt P11043, G170A); assay: Glyphosate sensitivity of petunia EPSP synthase with alanine for the first glycine of the conserved region; assay type: biochemical; conditions: alanine inserted for the first glycine of the conserved region
Source text: The EPSP synthase sequences shown in FIG. 2 represent a broad evolutionary range of source materials for EPSP synthases. […] However, those skilled in the art will recognize that a particular EPSP synthase may be produced by and isolated from another source material which may not have the exact sequence of the conserved region.

[2] = molecular target: T1, glyphosate-tolerant EPSP synthase (gly(101)-ala) of tomato (Solanum lycopersicum, UniProt P10748, G177A); assay: EPSP synthase activity assay, extracts of E. coli SR481 harboring pMON9729; assay type: biochemical
T1 construct: ATG translational initiation codon at the site predicted to be the start of the mature enzyme for in vitro expression in E. Coli; initiator methionine (ATG in an engineered NcoI site) (N); made in house; host or cells: E. coli SR481 (aroA mutant) harboring pMON9729, desalted cell extract
Experimental: (§1) E. coli SR481 cells harboring pMON9719 or pMON9729 were grown under conditions which induce the expression of the RecA promoter. The cells were lysed and the extracts were assayed for EPSP synthase activity.
(§2) Specifically, the bacterial cell paste was washed twice with 0.9% saline, suspended in buffer (100 mM Tris-HCl, 5 mM dithiothreitol, 1 mM EDTA, 10% glycerol and 1 mM benzamidine HCl) passed twice through the French Pressure Cell at 1000 psi. The cell abstract was separated from the cells by centrifuging at 15,000×gravity for 10 mins. at 5° C. It was desalted using Sephadex G-50 (Pharmacia, Piscataway, N.J.). The desalted extract was assayed for EPSP synthase activity as follows:
(§3) To an assay mix (40 μl) containing shikimate-3-phosphate (2 mM), ^14 C-phosphoenolpyruvate (1 mM, 1.2 mCi/mmol), ammonium molybdate (0.1 mM), potassium fluoride (5 mM), in 50 mM HEPES-KOH, pH 7, was added 10 μl of the extract and incubated at 25° C. for 2 mins. […] The radioactivity of the eluent was monitored using a Radiometric Flo-One Beta Instrument. […] The EPSP synthase activity was determined by measurement of the conversion of ^14 C-PEP to ^14 […], both of which are resolved under the above conditions of chromatography. The protein content of the extract was determined by the method of Bradford (Biorad Labs, Calif.). […]

[3] = molecular target: T2, wild-type EPSP synthase of tomato (Solanum lycopersicum, UniProt P10748); assay: EPSP synthase activity assay, extracts of E. coli SR481 harboring pMON9719; assay type: biochemical
T2 construct: ATG translational initiation codon at the site predicted to be the start of the mature enzyme for in vitro expression in E. Coli; initiator methionine (ATG in an engineered NcoI site) (N); made in house; host or cells: E. coli SR481 (aroA mutant) harboring pMON9719, desalted cell extract
Experimental: as §1, §2, §3

[4] = molecular target: T3, mutant maize pre-EPSP synthase (alanine for second glycine) (Zea mays, UniProt A0A1D6NVZ6, G163A); assay: EPSP synthase activity of in vitro translation product of pMON9960; assay type: biochemical
T3 construct: full-length cDNA pre-enzyme with chloroplast transit peptide, T7 in vitro transcription, rabbit reticulocyte lysate translation
Experimental: The linearized plasmid DNA was transcribed in vitro with T7 polymerase essentially as described by Krieg et al. 1984. The standard reaction buffer contained 40 mM Tris-HCl (pH 7.9), 6 mM MgCl2, 10 mM dithiothreitol, 2 mM spermidine, 80 U RNAsin ribuonuclease inhibitor, 0.5 mM each of ATP, GTP, CTP and UTP, in a final reaction volume of 100 μl. The final RNA pellet was resuspended in 20 μl of sterile water and stored at -80° C. A standard translation reaction contained 100 μl of nuclease-treated rabbit reticulocyte lysate, 5.7 μl of a 19-amino acid mixture (minus methionine at 1 mM each, 5.7 μl of RNA (total RNA transcripts derived from 0.63 μg of plasmid DNA), 16 μl RNAsin (20U/μl) ribonuclease inhibitor, and 58.3 μl of [^35 S] methionine (14-15 mCi/ml). The in vitro translation products were stored frozen at -80 ° C.
The products of the in vitro translation were then assayed for EPSP synthase activity as described herein.

wild type callus = assay: Growth of wild type callus on glyphosate; assay type: cell-based, Brassica napus; conditions: 0.5 mM glyphosate
[5] = system: tobacco plants transformed with glyphosate-tolerant petunia EPSP synthase gene (pMON567); assay: Relative effect of glyphosate spray on transformed tobacco, glyphosate-tolerant gene; assay type: in vivo, Nicotiana tabacam CV H425; set-up: key: 0 = total kill, 10 = normal unsprayed plant; conditions: GT
Source text: A culture of A. tumefaciens cells containing pMON567/pGV3111-SE was contacted with leaf disks taken from tobacco plants (Nicotiana tabacam CV H425) as described by Horsch (1985). The Agrobacterium cells inserted the mutant EPSP synthase gene into the chromosomes of the plant cells. Plant cells resistant to kanamycin were selected and regenerated into differentiated plants by the procedure of Horsch (1985).
Progeny of these plants were propagated and grown to a rosette diameter of about 10 cm corresponding to a plant age of about four weeks. […] […] The effect was translated to a numerical scale of 0-10 in which 0 represents total kill and 10 is the normal, unsprayed plant. […] The values represent the best transformant for both wild-type EPSP synthase and glyphosate-tolerant EPSP synthase genes.

T3 sequence (A0A1D6NVZ6 entry or part of it G163A): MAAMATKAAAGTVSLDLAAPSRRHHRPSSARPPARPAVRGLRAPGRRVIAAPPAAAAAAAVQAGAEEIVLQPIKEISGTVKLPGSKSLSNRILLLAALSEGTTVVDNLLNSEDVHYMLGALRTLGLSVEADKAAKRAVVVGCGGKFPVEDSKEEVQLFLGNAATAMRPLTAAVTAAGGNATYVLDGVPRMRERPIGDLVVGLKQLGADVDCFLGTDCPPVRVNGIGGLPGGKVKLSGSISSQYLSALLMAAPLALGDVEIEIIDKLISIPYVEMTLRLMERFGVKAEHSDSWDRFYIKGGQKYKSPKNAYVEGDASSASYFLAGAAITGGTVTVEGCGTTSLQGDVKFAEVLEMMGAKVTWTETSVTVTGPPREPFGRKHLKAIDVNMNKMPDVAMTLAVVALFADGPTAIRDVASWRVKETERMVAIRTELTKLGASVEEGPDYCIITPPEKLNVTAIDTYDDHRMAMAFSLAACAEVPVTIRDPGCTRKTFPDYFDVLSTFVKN
Sequence of petunia EPSP synthase with alanine for the first glycine of the conserved region (P11043 73-516 G170A): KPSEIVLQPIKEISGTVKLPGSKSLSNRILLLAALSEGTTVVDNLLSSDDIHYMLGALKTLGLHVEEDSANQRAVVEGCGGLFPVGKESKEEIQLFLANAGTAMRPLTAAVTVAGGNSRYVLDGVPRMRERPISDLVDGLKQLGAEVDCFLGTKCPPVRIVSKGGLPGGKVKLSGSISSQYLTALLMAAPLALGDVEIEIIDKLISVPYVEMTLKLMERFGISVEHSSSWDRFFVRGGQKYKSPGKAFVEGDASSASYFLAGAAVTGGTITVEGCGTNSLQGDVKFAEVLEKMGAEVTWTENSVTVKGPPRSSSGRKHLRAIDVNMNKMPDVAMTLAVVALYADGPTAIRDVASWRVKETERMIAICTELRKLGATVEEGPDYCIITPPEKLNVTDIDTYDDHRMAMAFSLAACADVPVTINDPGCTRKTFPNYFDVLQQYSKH
T2 sequence (P10748 77-520): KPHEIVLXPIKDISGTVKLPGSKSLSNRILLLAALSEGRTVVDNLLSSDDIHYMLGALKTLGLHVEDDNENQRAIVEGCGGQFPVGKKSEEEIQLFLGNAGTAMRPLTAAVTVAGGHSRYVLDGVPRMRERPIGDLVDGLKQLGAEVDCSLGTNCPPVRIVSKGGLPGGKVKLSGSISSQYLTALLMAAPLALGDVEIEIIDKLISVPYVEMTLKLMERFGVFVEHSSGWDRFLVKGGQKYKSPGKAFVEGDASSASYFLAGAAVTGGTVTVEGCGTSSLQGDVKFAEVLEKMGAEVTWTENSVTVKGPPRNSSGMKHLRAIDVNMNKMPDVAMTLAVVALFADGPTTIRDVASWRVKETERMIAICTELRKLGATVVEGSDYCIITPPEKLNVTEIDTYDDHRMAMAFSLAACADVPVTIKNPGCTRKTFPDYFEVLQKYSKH
T1 sequence (P10748 77-520 G177A): as the sequence (P10748 77-520) above, with G101A counted along it

O=C(O)CNCP(=O)(O)O [glyphosate, N-phosphonomethylglycine]
change in glyphosate sensitivity versus wild-type petunia EPSP synthase [1]: no attendant changes in glyphosate sensitivity
IC50 [2]: 32 mM
IC50 [3]: 0.012 mM
inhibition of EPSP synthase activity ([4]; 1 mM glyphosate, product of pMON9960): only slightly inhibited
EPSP synthase activity in the presence of glyphosate ([4]; 100 mM glyphosate, product of pMON9960): still showing detectable activity
inhibition at 10000 µM ([4]; read-out: inhibition of EPSP synthase activity): 25%
effect on callus (wild type callus): kills
Relative effect of glyphosate (0 total kill, 10 no effect) ([5]; 0.4 Pounds/Acre, Day 7, best transformant): 8.0
Relative effect of glyphosate (0 total kill, 10 no effect) ([5]; 0.4 Pounds/Acre, Day 14, best transformant): 8.0
Relative effect of glyphosate (0 total kill, 10 no effect) ([5]; 0.4 Pounds/Acre, Day 28, best transformant): 9.0
Relative effect of glyphosate (0 total kill, 10 no effect) ([5]; 2.0 Pounds/Acre, Day 7, best transformant): 8.0
Relative effect of glyphosate (0 total kill, 10 no effect) ([5]; 2.0 Pounds/Acre, Day 14, best transformant): 8.3
Relative effect of glyphosate (0 total kill, 10 no effect) ([5]; 2.0 Pounds/Acre, Day 28, best transformant): 7.0
Relative effect of glyphosate (0 total kill, 10 no effect) ([5]; 3.6 Pounds/Acre, Day 7, best transformant): 5.0
Relative effect of glyphosate (0 total kill, 10 no effect) ([5]; 3.6 Pounds/Acre, Day 14, best transformant): 7.4
Relative effect of glyphosate (0 total kill, 10 no effect) ([5]; 3.6 Pounds/Acre, Day 28, best transformant): 7.0
